Legend:
human mGluR2 = human mGluR2 (Homo sapiens, UniProt Q14416); assay: Multispan Allosteric Profiling panel, Ca2+ (Gqi5), control experiment; type: cell-based; details: increasing concentrations of SAR218645; Gqi5 cells
human mGluR1 = molecular target: T1, human mGluR1 (Homo sapiens, UniProt Q13255); assay: Multispan Allosteric Profiling panel, Ca2+ (Gqi5); type: cell-based
T1 construct: host or cells: HEK293 co-expressing Gqi5

human mGluR3 = molecular target: T2, human mGluR3 (Homo sapiens, UniProt Q14832); assay: Multispan Allosteric Profiling panel, Ca2+ (Gqi5); type: cell-based
T2 construct: host or cells: HEK293 co-expressing Gqi5
T2 sequence (Q14832 23-879): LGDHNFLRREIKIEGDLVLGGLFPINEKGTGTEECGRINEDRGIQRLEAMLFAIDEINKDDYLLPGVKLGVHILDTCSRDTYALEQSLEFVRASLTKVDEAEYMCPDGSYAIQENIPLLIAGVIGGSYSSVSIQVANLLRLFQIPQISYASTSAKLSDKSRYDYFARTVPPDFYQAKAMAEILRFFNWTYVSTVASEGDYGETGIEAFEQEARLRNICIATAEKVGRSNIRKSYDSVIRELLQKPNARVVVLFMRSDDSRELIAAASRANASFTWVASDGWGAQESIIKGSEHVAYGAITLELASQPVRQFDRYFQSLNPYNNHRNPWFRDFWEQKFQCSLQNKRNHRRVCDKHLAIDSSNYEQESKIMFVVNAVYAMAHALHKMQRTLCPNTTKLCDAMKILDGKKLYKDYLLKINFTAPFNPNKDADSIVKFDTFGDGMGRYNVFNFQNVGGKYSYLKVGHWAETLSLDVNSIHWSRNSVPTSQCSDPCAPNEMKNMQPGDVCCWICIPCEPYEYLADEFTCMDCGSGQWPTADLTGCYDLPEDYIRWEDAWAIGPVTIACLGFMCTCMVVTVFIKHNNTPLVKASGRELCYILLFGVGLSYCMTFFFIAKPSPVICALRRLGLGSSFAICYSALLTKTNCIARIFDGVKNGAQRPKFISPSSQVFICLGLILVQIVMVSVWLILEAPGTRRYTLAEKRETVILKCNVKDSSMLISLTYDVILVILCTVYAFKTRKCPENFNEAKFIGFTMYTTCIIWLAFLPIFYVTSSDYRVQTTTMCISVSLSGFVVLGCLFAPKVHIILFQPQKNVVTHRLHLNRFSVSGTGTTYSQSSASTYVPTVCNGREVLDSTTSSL

human mGluR6 = molecular target: T3, human mGluR6 (Homo sapiens, UniProt O15303); assay: Multispan Allosteric Profiling panel, Ca2+ (Gqi5); type: cell-based
T3 construct: host or cells: HEK293 co-expressing Gqi5
T3 sequence (O15303 25-877): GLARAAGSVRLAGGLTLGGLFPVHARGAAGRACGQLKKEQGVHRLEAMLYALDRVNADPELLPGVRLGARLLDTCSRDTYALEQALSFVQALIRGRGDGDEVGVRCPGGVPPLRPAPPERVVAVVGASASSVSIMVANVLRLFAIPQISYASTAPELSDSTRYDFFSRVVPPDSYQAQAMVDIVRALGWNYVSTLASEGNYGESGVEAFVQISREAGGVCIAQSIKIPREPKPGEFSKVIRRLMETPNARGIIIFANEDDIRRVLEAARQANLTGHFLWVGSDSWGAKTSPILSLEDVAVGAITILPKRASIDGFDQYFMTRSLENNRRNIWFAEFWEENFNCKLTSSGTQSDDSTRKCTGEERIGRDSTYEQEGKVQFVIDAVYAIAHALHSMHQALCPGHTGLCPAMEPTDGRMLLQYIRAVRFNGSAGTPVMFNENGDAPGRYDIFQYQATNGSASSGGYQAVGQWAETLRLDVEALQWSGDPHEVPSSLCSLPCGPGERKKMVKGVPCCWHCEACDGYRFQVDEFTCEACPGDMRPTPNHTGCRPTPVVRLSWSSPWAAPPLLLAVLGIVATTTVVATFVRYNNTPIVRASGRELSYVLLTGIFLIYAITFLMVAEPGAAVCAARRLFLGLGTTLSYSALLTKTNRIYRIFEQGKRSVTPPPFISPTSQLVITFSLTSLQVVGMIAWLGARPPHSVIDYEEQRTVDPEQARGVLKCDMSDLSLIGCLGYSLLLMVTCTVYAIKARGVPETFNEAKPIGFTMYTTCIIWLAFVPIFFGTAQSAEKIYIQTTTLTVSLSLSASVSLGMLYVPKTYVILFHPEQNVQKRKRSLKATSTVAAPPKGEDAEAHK

native mouse mGluR2 = molecular target: T4, native mouse mGluR2 (Mus musculus, UniProt Q14BI2); assay: [35S]GTPγS binding to mouse cortex; type: biochemical; details: absence of glutamate
T4 construct: SAR218645 acted as a pure mGluR2 PAM at native mouse mGluR2 in the cortex; from tissue; host or cells: mouse cortex membranes
T4 sequence (Q14BI2 19-872): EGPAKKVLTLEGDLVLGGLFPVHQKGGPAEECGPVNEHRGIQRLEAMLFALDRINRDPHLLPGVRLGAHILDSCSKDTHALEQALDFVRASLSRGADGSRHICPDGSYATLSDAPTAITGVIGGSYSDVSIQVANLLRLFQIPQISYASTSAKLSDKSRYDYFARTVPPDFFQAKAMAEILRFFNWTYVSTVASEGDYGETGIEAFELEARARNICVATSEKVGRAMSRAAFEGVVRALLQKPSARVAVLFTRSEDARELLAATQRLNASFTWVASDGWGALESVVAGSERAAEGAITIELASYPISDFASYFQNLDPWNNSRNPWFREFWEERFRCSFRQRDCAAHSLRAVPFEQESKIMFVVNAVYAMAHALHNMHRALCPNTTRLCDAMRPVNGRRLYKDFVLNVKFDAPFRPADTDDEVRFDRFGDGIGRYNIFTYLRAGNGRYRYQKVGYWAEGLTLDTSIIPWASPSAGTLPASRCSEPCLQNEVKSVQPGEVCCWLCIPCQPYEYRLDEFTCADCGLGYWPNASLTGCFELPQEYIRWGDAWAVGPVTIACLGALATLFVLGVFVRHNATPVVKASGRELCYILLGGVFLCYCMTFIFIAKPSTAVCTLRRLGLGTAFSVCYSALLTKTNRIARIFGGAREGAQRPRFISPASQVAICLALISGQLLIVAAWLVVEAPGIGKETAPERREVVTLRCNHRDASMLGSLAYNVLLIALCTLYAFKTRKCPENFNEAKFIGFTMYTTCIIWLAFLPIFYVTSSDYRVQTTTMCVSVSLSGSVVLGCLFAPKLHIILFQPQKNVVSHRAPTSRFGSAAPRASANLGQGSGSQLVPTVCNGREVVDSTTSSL
Description: The assay was performed in 96-well filtration plates in 250 μl total volume. […] For termination of the reaction, the plate was filtered and dried prior to adding 50 μl Microscint 40, and counted on the 1450 TopCount Microbeta Counter. EC50 were calculated using 4-parameter curve fitting.

CD-1 mice = assay: LY404039-induced turning behavior; type: in vivo
Description: Under light restraint, a single unilateral intracortical infusion of the selective mGluR2/3 receptor agonist, LY404039, was performed in CD-1 mice (25–30 g at arrival). An injection point was assessed using the eyes and back of the skull as landmarks. Immediately following the application of LY404039, the observation period began. The number of contralateral turns elicited in a 5 min period was recorded. SAR218645 was administered orally 60 min before infusion of LY404039 and the potentiation of the turning behavior was noted. The selective mGluR2/3 receptor antagonist, LY341495, was administered ip 90 min prior to infusion of LY404039. Statistical analysis was performed using Kruskal Wallis test followed by a Wilcoxon two-tailed comparison. Ten animals per group were used.

Sprague-Dawley rats = assay: DOI-induced glutamate release in the medial prefrontal cortex (microdialysis); type: in vivo
Description: Male Sprague-Dawley rats (320–350 g) were housed two per cage. Two days before the dialysis assay, they were anesthetized with chloral hydrate (400 mg/kg, ip, 10 ml/kg of body weight) and placed in a stereotaxic apparatus (David Kopf Instruments, Tujunga, CA, USA). Anesthesia was maintained throughout surgery as necessary with supplementary doses of chloral hydrate. Body temperature was monitored by a rectal probe and adjusted (37 ± 1 °C) by a homeothermic blanket. The skull and the dura were opened to allow the implantation of a guide cannula in the medial prefrontal cortex (PFC). The coordinates were […] to bregma, […] to the midline and […] the dural surface. A dental cement cap held the cannula in place, and three screws anchored the cap to the skull. The rats were individually housed post-surgery and allowed two days of recovery before the start of the experiment. On the day of the experiment, animals were placed in a microdialysis bowl, the cannula cap was removed, and a […] (CMA12, Carnegie Medicine AB, Stockholm, Sweden) was inserted into the guide cannula. The probe was perfused at a constant flow rate of 1 μl/min using a microinjection pump (CMA100; Carnegie Medicine AB) with a gassed Ringer’s solution containing (in mM): NaCl (145), KCl (2.7), CaCl2 (1.2), MgCl2 (1), Na2HPO4 (2.3), […]; pH 7.4. Microdialysis sampling started 120 min after probe placement into the PFC. The outlet of the probe was connected to an on-line derivatization system allowing direct analysis of dialysate samples collected every 15 min. […] CE experiments were performed on a P/ACE MDQ capillary electrophoresis system (Beckman Coulter, Villepinte, France) coupled to an external Zetalif fluorescence detector (Picometrics S.A., Toulouse, France). […] The emission intensity was measured at a wavelength of 490 nm. […] Dose-effect of SAR218645 was evaluated by comparing the area under the curve during the first 150 min after po injection of the drug or vehicle. […]

OF1 mice = assay: Maximal electroshock seizure (MES) test; type: in vivo
Description: SAR218645 (30 mg/kg, po) and the reference anticonvulsant agent, diazepam (10 mg/kg), were administered ip to OF1 mice (12–14 g) 30 min prior to test, respectively. An electrical stimulus (60 Hz, 0.8 ms rectangular pulse, 0.4 s duration, 50 mA) was applied to both corneas. The occurrence of tonic extension of the hindlimbs was noted.

T1 sequence (Q13255 19-1194): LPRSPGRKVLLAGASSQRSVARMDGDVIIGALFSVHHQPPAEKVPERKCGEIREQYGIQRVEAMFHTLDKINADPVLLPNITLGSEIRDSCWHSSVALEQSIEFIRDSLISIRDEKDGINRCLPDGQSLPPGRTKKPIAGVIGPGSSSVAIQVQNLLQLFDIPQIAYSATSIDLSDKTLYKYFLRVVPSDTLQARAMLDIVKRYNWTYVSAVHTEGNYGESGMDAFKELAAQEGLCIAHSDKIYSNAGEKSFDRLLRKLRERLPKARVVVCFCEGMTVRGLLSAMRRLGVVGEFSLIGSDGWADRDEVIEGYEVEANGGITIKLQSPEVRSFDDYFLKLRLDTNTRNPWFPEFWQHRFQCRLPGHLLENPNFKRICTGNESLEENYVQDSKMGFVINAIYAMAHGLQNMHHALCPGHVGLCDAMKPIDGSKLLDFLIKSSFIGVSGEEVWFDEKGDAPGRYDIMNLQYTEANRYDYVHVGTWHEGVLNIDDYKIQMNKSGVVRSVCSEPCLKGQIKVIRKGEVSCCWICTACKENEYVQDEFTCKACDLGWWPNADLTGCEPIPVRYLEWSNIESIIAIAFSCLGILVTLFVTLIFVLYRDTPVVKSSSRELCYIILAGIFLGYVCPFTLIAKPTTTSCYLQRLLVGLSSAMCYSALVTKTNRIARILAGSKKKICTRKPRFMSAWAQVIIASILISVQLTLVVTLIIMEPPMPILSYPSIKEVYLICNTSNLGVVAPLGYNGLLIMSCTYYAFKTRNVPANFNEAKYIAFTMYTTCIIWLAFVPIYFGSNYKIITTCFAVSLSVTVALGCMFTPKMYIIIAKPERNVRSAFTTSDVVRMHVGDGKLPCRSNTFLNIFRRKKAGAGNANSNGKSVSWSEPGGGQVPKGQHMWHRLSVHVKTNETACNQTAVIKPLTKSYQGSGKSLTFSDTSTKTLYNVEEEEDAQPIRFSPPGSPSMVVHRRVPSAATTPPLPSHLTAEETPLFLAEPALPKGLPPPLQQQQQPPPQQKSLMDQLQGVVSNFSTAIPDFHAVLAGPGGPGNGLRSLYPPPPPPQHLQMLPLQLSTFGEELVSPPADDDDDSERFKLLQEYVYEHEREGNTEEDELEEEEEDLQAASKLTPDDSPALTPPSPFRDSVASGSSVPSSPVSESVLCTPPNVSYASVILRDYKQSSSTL
Chain of human mGluR2 (Q14416 19-872): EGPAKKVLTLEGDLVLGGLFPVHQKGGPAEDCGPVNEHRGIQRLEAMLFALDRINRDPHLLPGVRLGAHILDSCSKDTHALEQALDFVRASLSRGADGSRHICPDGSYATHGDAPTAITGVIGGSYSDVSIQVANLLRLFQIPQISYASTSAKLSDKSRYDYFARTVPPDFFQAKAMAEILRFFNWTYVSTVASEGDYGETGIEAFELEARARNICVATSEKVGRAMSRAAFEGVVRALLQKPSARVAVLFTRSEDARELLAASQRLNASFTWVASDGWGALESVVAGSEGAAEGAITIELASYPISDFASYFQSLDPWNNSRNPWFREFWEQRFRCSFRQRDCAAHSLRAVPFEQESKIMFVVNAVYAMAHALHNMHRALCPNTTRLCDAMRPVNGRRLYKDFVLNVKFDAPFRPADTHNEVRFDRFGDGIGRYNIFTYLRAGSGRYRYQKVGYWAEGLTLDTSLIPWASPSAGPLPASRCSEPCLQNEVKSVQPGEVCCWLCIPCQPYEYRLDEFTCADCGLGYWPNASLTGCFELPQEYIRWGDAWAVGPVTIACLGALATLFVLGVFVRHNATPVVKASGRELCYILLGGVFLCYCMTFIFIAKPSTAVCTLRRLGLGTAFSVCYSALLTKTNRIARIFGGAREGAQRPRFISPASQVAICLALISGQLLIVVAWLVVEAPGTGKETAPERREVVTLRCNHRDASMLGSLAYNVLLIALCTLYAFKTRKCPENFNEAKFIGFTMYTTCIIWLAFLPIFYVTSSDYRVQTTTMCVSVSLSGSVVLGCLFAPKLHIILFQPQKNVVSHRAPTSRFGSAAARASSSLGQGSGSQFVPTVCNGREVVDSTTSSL

SMILES: CC1(C)CCc2cc(OC[C@@H]3Cn4ccc(=O)nc4O3)ccc21 [SAR218645, (S)-2-(1,1-dimethyl-indan-5-yloxymethyl)-2,3-dihydro-oxazolo[3,2-a]pyrimidin-7-one]
- effect on glutamate response (human mGluR2): leftward shift
- effect on glutamate-induced activation (human mGluR1; 10 μM SAR218645): no effect
- calcium response to compound alone (human mGluR1; SAR218645 alone): did not elicit a calcium response
- effect on glutamate-induced increases in intracellular calcium (human mGluR3; 10 μM SAR218645): no effect
- calcium response to compound alone (human mGluR3; SAR218645 alone): did not elicit a calcium response
- effect on glutamate-induced activation (human mGluR6; 10 μM SAR218645): no effect
- calcium response to compound alone (human mGluR6; SAR218645 alone): did not elicit a calcium response
- intrinsic activity (native mouse mGluR2): did not have any intrinsic activity
- effect on LY404039-induced turning behavior (CD-1 mice; 3 and 10 mg/kg po, 60 min before LY404039 infusion, P < 0.01): potentiated significantly
- Minimal active dose (CD-1 mice; dose-range 1–10, po, CD-1 mice): 3 mg/kg
- effect on DOI-induced increase in extracellular glutamate (time-course) (Sprague-Dawley rats; 3 mg/kg po, 30 min before DOI 2.5 mg/kg sc): blocked significantly
- effect on glutamate AUC during 150 min (Sprague-Dawley rats; 30 mg/kg po, P < 0.05): reaching statistical significance
- Minimal active dose (Sprague-Dawley rats; dose-range 0.3–30, po, Sprague-Dawley rats): 3 mg/kg
- Tonic seizures (OF1 mice; 30 mg/kg ip): 100%
- Minimal active dose (OF1 mice; 30, ip, OF1 mice): >30 mg/kg

Source: PMC5062470, “The mGluR2 positive allosteric modulator, SAR218645, improves memory and attention deficits in translational models of cognitive symptoms associated with schizophrenia” (Scientific Reports, 2016)
